Entries after “also recorded” stand apart in the source; their conditions may differ.
Tests used:
[1] = test system: glycerol kinase overexpressing 832/13 cells; experiment: 13C studies in glycerol kinase overexpressing 832/13 cells (insulin secretion, lactate output, pyruvate cycling); type: cell-based, rat
Excerpt: FIG. 9 depicts the effect of glycerol kinase overexpression in 832/13 cells on insulin excretion, lactate output and pyruvate cycling.
In contrast, pyruvate cycling and lactate output are higher in response to glycerol than to glucose.

832/13 cells = experiment: Insulin secretion assay in 832/13 cells (radioimmunoassay); type: cell-based, rat
Experimental: FIG. 3. Stimulation of insulin secretion by lactate, pyruvate, and glucose in 832/13 cells. Confluent, insulin secreting 832/13 cells were stimulated for 2 hours with various concentrations of secretagogues as indicated in the figure, and IS was determined by radioimmunoassay of the cell supernatant.
FIG. 4. The effect of rat LDHA overexpression on glucose, pyruvate, and lactate-stimulated insulin secretion in 832/13 cells. 832/13 cells were treated with adenovirus expressing rat LDHA (AdLDH) and beta-galactosidase (Adbetagal), respectively. The LDH activity in cell extracts was monitored by the decrease in absorbance at 340 nm (insert) and the insulin response to glucose, pyruvate, and lactate was examined by radioimmunoassay.
FIG. 7B. The effect of the LDH inhibitor oxamate on insulin secretion in 832/13 cells. Cells were incubated with ^13C labeled glucose for 4 hours in the presence or absence of oxamate.
FIG. 14. The effect of mitLDHA and LDHA on fuel-mediated IS in the 832/13 cells. The inset depicts the activity of LDH for each experiment.
The cell line 832/13 was created from INS-1 insulinoma β-cells as described earlier (Hohmeier et al. (2000) Diabetes 49:424430). Cells were cultured in RPMI-1640 medium containing 11 mM glucose supplemented with 10% fetal bovine serum, 10 mM HEPES, 2 mM glutamine, 1 mM sodium pyruvate and […] β-mercaptoethanol. Media was routinely changed every second day. […]
Insulin secretion was assayed in HEPES buffered saline solution (HBSS) (114 mM NaCl, 4.7 mM KCl, 1.2 mM KH2PO4, 1.16 mM MgSO4, 20 mM HEPES, 2.5 mM CaCl2, 25.5 mM NaHCO3, pH 7.2 containing 0.2% bovine serum albumin (essentially fatty acid free). Cells were washed in 1 ml of HBSS, preincubated in 1.5 ml of HBSS for 2 hour prior to a 2 hour incubation in the presence of secretagogues as indicated in the figures. The insulin levels were determined by radioimmunoassay with the Coat-A-Count kit (ICN Pharmaceuticals, Costa Mesa, Calif.) and lactate output was determined with a Lactate Reagent kit (Sigma, St. Louis, Mo.) according to protocols outlined by the manufacturer.

[2] = test system: cell lines derived from rat INS-1 cells; details: glucose-responsive clones; in direct correlation with changes in pyruvate cycling; cited from earlier work

Q: Which “lactate output, compared with glucose” value [1] does the source give for `OCC(O)CO` [glycerol] here?
A: higher

Q: What about the “pyruvate cycling, compared with glucose” value [1] of the same compound?
A: higher

Q: What about the “stimulation of insulin secretion, compared with glucose” value [1] of the same compound?
A: to the same extent

Q: What does the source list for `CC(O)C(=O)O` (centres unmarked) [lactate]?
A: stimulation of insulin secretion as secretagogue (832/13 cells; 832/13 cells overexpressing LDHA (AdLDH treated)): as effective as the other two fuels; also recorded: as effective as glucose or pyruvate; stimulation of insulin secretion as secretagogue (832/13 cells; 832/13 cells without LDHA overexpression, 2 hours, relative to glucose or pyruvate): poor secretagogue; also recorded: only a weak stimulator; stimulation of insulin secretion as secretagogue (832/13 cells; 832/13 cells without LDHA overexpression, 2 hours, relative to glucose or pyruvate, listed as Lactate): poor secretagogue

Q: For `O=C(O)Cc1ccccc1` [phenylacetic acid], which “effect on glucose-stimulated IS” value [2] is on record?
A: impaired

Q: With malate in the form of methyl ester as the compound, how does the “effect on glucose-stimulated IS” value [2] read?
A: potentiated
